What all share (assay type): cell-based
For one data set, the target named is T1, CXCR4 receptor (Homo sapiens, UniProt P61073).
T1 construct: expressed in transfected cells; host or cells: HEK-293 cells (stably expressing human macrophage scavenger receptor) transduced with human CXCR4 BacMam and Gqi5 BacMam
Nature of the data set: Functional FLIPR assay (block of SDF-1 alpha induced [Ca2+]i change). Conditions: HEK-293 cells, human CXCR4 BacMam and Gqi5 BacMam, read-out: Functional assay (pIC50) (converted). The procedure:
Human embryonic kidney (HEK-293) cells were maintained and harvested as described above. Cells were plated in 96-well, black clear bottom, poly-lysine coated plates at a concentration of 40,000 cells per well in a final volume of 100 ul containing human CXCR4BacMam (MOI=25) and Gqi5 BacMam (MOI=12.5). The cells were incubated at 37° C., 5% CO2, 95% humidity for 24 h to allow for protein expression.
After the required incubation time the cells were washed once with 50 ul of fresh serum-free DMEM/F12 media containing probenicid. 50 ul of dye solution was then added to the cells (Calcium Plus Assay Kit Dye; Molecular Devices) was dissolved in 200 ml of the above probenicid/BSA containing media and incubated for 1 h. Cell plates were transferred to a Fluorometric Imaging Plate Reader (FLIPR). Upon addition the effect of the compounds on the change in [Ca^2+]i was examined to determine if the compounds were agonists or antagonists (ability to block SDF-1 alpha activity) at the CXCR4 receptor. IC50 values are determined and pKb values are calculated using the Leff and Dougall equation: KB═IC50/((2+([agonist]/EC50̂b)̂1/b−1) Where IC50 is that defined by the antagonist concentration-response curve [agonist)] is the EC80 concentration of agonist used EC50 is that defined by the agonist concentration-response curve b is the slope of the agonist concentration-response curve.

In data set [1] the test system is HIV-1 gp160 (HXB2 strain) mediated cell/cell fusion. Nature of the data set: Cell/cell fusion assay (HOS hCXCR4/hCCR5/hCD4/pHIV-LTR-luciferase cells with HEK-293 cells expressing HIV-1 tat, rev, gp160), luciferase readout. Conditions: Homo sapiens, HEK293, 24 h, read-out: Fusion assay (pIC50) (converted). An excerpt:
The complete coding sequences of HIV-1 tat (GenBank Accession No. X07861) and rev (GenBank Accession No. M34378) were cloned into pcDNA3.1 expression vectors containing G418 and hygromycin resistance genes, respectively. The complete coding sequence of the HIV-1 (HXB2 strain) gp160 envelope gene (nucleotide bases 6225-8795 of GenBank Accession No. K03455) was cloned into plasmid pCRII-TOPO. The three HIV genes were additionally inserted into the baculovirus shuttle vector, pFastBacMam1, under the transcriptional control of the CMV promoter. A construction of the pHIV-1 LTR containing mutated NFkB sequences linked to the luciferase reporter gene was prepared by digesting pcDNA3.1, containing the G418 resistance gene, with Nru I and Bam HI to remove the CMV promoter. LTR-luc was then cloned into the Nru I/Bam HI sites of the plasmid vector. Plasmid preparations were performed after the plasmids were amplified in Escherichia coli strain DH5-alpha. The fidelity of the inserted sequences was confirmed by double-strand nucleotide sequencing using an ABI Prism Model 377 automated sequencer.
Recombinant BacMam baculoviruses were constructed from pFastBacMam shuttle plasmids by using the bacterial cell-based Bac-to-Bac system. Viruses were propagated in Sf9 (Spodoptera frugiperda) cells cultured in Hink's TNM-FH Insect media supplemented with 10% (v/v) fetal bovine serum and 0.1% (v/v) pluronic F-68 according to established protocols.
Human osteosarcoma (HOS) cells that naturally express human CXCR4 were transfected with human CCR5, human CD4 and the pHIV-LTR-luciferase plasmid using FuGENE 6 transfection reagent. Single cells were isolated and grown under selection condition in order to generate a stable HOS (hCXCR4/hCCR5/hCD4/pHIV-LTR-luciferase) clonal cell line. The cells were maintained in Dulbeccos modified Eagles media supplemented with 10% fetal calf serum (FCS), G418 (400 ug/ml), puromycin (1 ug/ml), mycophenolic acid (40 ug/ml), xanthine (250 ug/ml) and hypoxanthine (13.5 ug/ml) to maintain a selection pressure for cells expressing the LTR-luciferase, hCCR5 and hCD4, respectively. Human embryonic kidney (HEK-293) cells stably transfected to express the human macrophage scavenging receptor (Class A, type 1; GenBank Accession No. D90187), were maintained in DMEM/F-12 media (1:1) supplemented with 10% FCS and 1.5 ug/ml puromycin. The expression of this receptor by the HEK-293 cells enhances their ability to stick to tissue culture treated plasticware.
HEK-293 cells were harvested using enzyme-free cell dissociation buffer. The cells were resuspended in DMEM/F-12 media supplemented with 10% FCS and 1.5 ug/ml and counted. Tranductions were performed by direct addition of BacMam baculovirus containing insect cell media to cells. The cells were simultaneously transduced with BacMam baculovirus expressing HIV-1 tat, HIV-1 rev and HIV-1 gp160 (from the HXB2 HIV strain). Routinely an MOI of 10 of each virus was added to the media containing the cells. 2 mM butyric acid was also added to the cells at this stage to increase protein expression in transduced cells. The cells were subsequently mixed and seeded into a flask at 30 million cells per T225. The cells were incubated at 37° C., 5% CO2, 95% humidity for 24 h to allow for protein expression.
HEK and HOS cells were harvested in DMEM/F-12 media containing 2% FCS and DMEM media containing 2% FCS, respectively, with no selection agents added. Compounds were plated as 1 ul spots in 100% DMSO on a 96-well CulturPlate plates. HOS cells (50 ul) were added first to the wells, followed immediately by the HEK cells (50 ul). The final concentration of each cell type was 20,000 cells per well. Following these additions, the cells were returned to a tissue culture incubator (37° C.; 5% CO2/95% air) for an additional 24 h.
Following the 24 h incubation, total cellular luciferase activity was measured using the LucLite Plus assay kit (Packard, Meridien, Conn.). […]

The nature of data set [2]: Compound cytotoxicity in HOS cells in the absence of virus (CellTiter-Glo). Conditions: human, no virus, read-out: Cytotox (pIC50) (converted). The procedure:
Compounds were profiled against two HIV-1 viruses, the M-tropic (CCR5 utilizing) Ba-L strain and the T-tropic (CXCR4 utilizing) IIIB strain. Both viruses were propagated in human peripheral blood lymphocytes. Compounds were tested for there ability to block infection of the HOS cell line (expressing hCXCR4/hCCR5/hCD4/pHIV-LTR-luciferase) by either HIV-1 Ba-L or HIV-1 IIIB. Compound cytotoxicity was also examined in the absence of virus addition.
HOS cells (expressing hCXCR4/hCCR5/hCD4/pHIV-LTR-luciferase) were harvested and diluted in Dulbeccos modified Eagles media supplemented with 2% FCS and non-essential amino acid to a concentration of 60,000 cells/ml. The cells were plated into 96-well plates (100 ul per well) and the plates were placed in a tissue culture incubator (37° C.; 5% CO2/95% air) for a period of 24 h.
Subsequently, 50 ul of the desired drug solution (4 times the final concentration) was added to each well and the plates were returned to the tissue culture incubator (37° C.; 5% CO2/95% air) for 1 h. Following this incubation 50 ul of diluted virus was added to each well (approximately 2 million RLU per well of virus). The plates were returned to the tissue culture incubator (37° C.; 5% CO2/95% air) and were incubated for a further 96 h.
Following this incubation the endpoint for the virally infected cultures was quantified following addition of Steady-Glo Luciferase assay system reagent (Promega, Madison, Wis.). Cell viability or non-infected cultures was measured using a CellTiter-Glo luminescent cell viability assay system (Promega, Madison, Wis.). All luminescent readouts are performed on a Topcount luminescence detector (Packard, Meridien, Conn.).
(Cellular ATP, detected with luciferase, serves as a proxy for viable cell number.)

The subject of a further data set is HIV-1 IIIB. Nature of the data set: HOS HIV-1 infectivity assay. The method in brief: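 Engineered HOS reporter cells in 2% FCS medium received compound 1 h ahead of HIV-1 (~2 million RLU/well). Cultures ran 96 h at 37 °C before luciferase quantitation; parallel uninfected wells were scored for viability by CellTiter-Glo.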
Setting [3] is: Human immunodeficiency virus 1, IIIB, as determined by the infectivity assay, strain not stated in Table 2, read-out: Activity Level.
[4] abbreviates: Human immunodeficiency virus 1, T-tropic (CXCR4 utilizing) IIIB strain, HOS cells, 96 h, read-out: HOS (3B).

The text below walks through data of US20080096861A1, “Chemical Compounds” (SMITHKLINE BEECHAM CORPORATION, priority 2004, published 2008).

Where two headings read alike, the source gives them in different places.

T1 sequence (P61073 whole entry): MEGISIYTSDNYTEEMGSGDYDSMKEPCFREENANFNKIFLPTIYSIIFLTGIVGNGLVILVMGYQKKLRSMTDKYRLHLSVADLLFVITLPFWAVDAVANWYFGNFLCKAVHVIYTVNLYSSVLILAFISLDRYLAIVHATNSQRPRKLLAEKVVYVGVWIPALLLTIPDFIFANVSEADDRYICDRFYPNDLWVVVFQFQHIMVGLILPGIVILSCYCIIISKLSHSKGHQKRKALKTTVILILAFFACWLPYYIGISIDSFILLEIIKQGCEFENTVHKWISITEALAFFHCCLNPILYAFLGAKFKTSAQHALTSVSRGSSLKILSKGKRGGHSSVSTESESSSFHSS

Take `CN(Cc1nc2ccccc2n1Cc1ccc(CNCc2ccccn2)cc1)C1CCCc2cccnc21` (centres unmarked) [Example 12, N-Methyl-N-({1-[(4-{[(2-pyridinylmethyl)amino]methyl}phenyl)methyl]-1H-benzimidazol-2-yl}methyl)-5,6,7,8-tetrahydro-8-quinolinamine]: the IC50 is 224 nM on CXCR4 receptor, 575 nM in data set [1], 100 to 500 nM in the data set on HIV-1 IIIB (setting [3]) and 376 nM with HIV-1 IIIB (setting [4]). In addition, the IC50 at 96 h in data set [2] is above 100000 nM.

Turning to `CN(Cc1nc2ccccc2n1CCCCN)C1CCCc2cccnc21` (centres unmarked) [Example 13, N-{[1-(4-Aminobutyl)-1H-benzimidazol-2-yl]methyl}-N-methyl-5,6,7,8-tetrahydro-8-quinolinamine], the IC50 on CXCR4 receptor is 302 nM; in data set [1], 126 nM; with HIV-1 IIIB (setting [3]) it was 100 to 500 nM; in the data set with HIV-1 IIIB (setting [4]), 131 nM. In addition, the IC50 at 96 h in data set [2] was above 100000 nM.

For `CN(Cc1nc2ccccc2n1Cc1ccc(CN)cc1)C1CCCc2cccnc21` (centres unmarked) [Example 14, N-[(1-{[4-(Aminomethyl)phenyl]methyl}-1H-benzimidazol-2-yl)methyl]-N-methyl-5,6,7,8-tetrahydro-8-quinolinamine], the IC50 on CXCR4 receptor was 282 nM; in data set [1], 708 nM; with HIV-1 IIIB (setting [3]), 500 to 10000 nM; in the data set with HIV-1 IIIB (setting [4]), 985 nM. For the same compound, the IC50 at 96 h in data set [2] is above 100000 nM.

Regarding `CN(C)CCCn1c(CN(C)C2CCCc3cccnc32)nc2ccccc21` (centres unmarked) [Example 15c, N-({1-[3-(Dimethylamino)propyl]-1H-benzimidazol-2-yl}methyl)-N-methyl-5,6,7,8-tetrahydro-8-quinolinamine], the IC50 on CXCR4 receptor was 17 nM; in data set [1], 16.6 nM; in the data set with HIV-1 IIIB (setting [3]) it was below 100 nM; in the data set with HIV-1 IIIB (setting [4]), 23 nM. The IC50 at 96 h in data set [2] was above 100000 nM.

Take `CN(Cc1nc2ccccc2n1CCCNCc1ccccn1)C1CCCc2cccnc21` (centres unmarked) [Example 16, N-Methyl-N-[(1-{3-[(2-pyridinylmethyl)amino]propyl}-1H-benzimidazol-2-yl)methyl]-5,6,7,8-tetrahydro-8-quinolinamine]: the IC50 was 58.9 nM at CXCR4 receptor, 148 nM in data set [1], 100 to 500 nM in the data set with HIV-1 IIIB (setting [3]) and 121 nM with HIV-1 IIIB (setting [4]). Moreover, in data set [2], the IC50 at 96 h is above 100000 nM.

Regarding `CN(C)CCCCCn1c(CN(C)C2CCCc3cccnc32)nc2ccccc21` (centres unmarked) [Example 17, N-({1-[5-(Dimethylamino)pentyl]-1H-benzimidazol-2-yl}methyl)-N-methyl-5,6,7,8-tetrahydro-8-quinolinamine], the IC50 at CXCR4 receptor is 204 nM; in data set [1], 324 nM; with HIV-1 IIIB (setting [3]), 100 to 500 nM; in the data set on HIV-1 IIIB (setting [4]) it was 251 nM. Besides, the IC50 at 96 h in data set [2] was above 100000 nM.

`NCCCn1c(CNC2CCCc3cccnc32)nc2ccccc21` (centres unmarked) [Example 19, N-{[1-(3-Aminopropyl)-1H-benzimidazol-2-yl]methyl}-5,6,7,8-tetrahydro-8-quinolinamine]: the IC50 at CXCR4 receptor is 234 nM; in data set [1], 513 nM; in the data set with HIV-1 IIIB (setting [3]) it was below 100 nM; with HIV-1 IIIB (setting [4]), 90 nM. In addition, the IC50 at 96 h in data set [2] is above 100000 nM.

For `CCN(Cc1nc2ccccc2n1CCCN)C1CCCc2cccnc21` (centres unmarked) [Example 20, N-{[1-(3-Aminopropyl)-1H-benzimidazol-2-yl]methyl}-N-ethyl-5,6,7,8-tetrahydro-8-quinolinamine], the IC50 is 28.2 nM at CXCR4 receptor, 56.2 nM in data set [1], below 100 nM with HIV-1 IIIB (setting [3]) and 21 nM with HIV-1 IIIB (setting [4]). Besides, the IC50 at 96 h in data set [2] was above 100000 nM.

Consider `NCCCn1c(CN(Cc2ccccc2)C2CCCc3cccnc32)nc2ccccc21` (centres unmarked) [Example 21, N-{[1-(3-Aminopropyl)-1H-benzimidazol-2-yl]methyl}-N-(phenylmethyl)-5,6,7,8-tetrahydro-8-quinolinamine], for which the IC50 at CXCR4 receptor was 288 nM; in data set [1], 1320 nM; with HIV-1 IIIB (setting [3]), 500 to 10000 nM; in the data set with HIV-1 IIIB (setting [4]), 595 nM. Moreover, in data set [2], the IC50 at 96 h was above 100000 nM.

As for `CC(C)CCN(Cc1nc2ccccc2n1CCCN)C1CCCc2cccnc21` (centres unmarked) [Example 22, N-{[1-(3-Aminopropyl)-1H-benzimidazol-2-yl]methyl}-N-(3-methylbutyl)-5,6,7,8-tetrahydro-8-quinolinamine], the IC50 on CXCR4 receptor was 56.2 nM; in data set [1], 158 nM; in the data set on HIV-1 IIIB (setting [3]), 100 to 500 nM; with HIV-1 IIIB (setting [4]) it was 113 nM. Besides, the IC50 at 96 h in data set [2] was above 100000 nM.
